According to US10933134B2, “Combination therapies for treatment of cancer” (priority 2017, dated 2021):
Non-standard residues stand in square brackets, D forms with d. Residues, ends and D or L forms follow the SMILES beside them. *: point of attachment. dPhe(4-NHCONH2) = NC(=O)Nc1ccc(C[C@@H](N)C(=O)O)cc1; Dihydroorotyl(S) = O=C1C[C@@H](C(=O)*)NC(=O)N1; dPhe(4-Cl) = N[C@H](Cc1ccc(Cl)cc1)C(=O)O; Phe(4-NH2) = Nc1ccc(C[C@H](N)C(=O)O)cc1; d2Nal = N[C@H](Cc1ccc2ccccc2c1)C(=O)O; Lys(iPr) = CC(C)NCCCC[C@H](N)C(=O)O; d3Pal = N[C@H](Cc1cccnc1)C(=O)O

Legend:
[1] = system: total PSA (tPSA); assay: Serum total PSA in mice bearing LNCaP-AR tumors; type: in vivo; conditions: one, three, or seven days post-WST11 VTP (FIG. 5A)
Procedure: This assay measures free PSA and complexed PSA in an equimolar fashion [Ulmert et al., 2012; Mitrunen et al., 1995], and the cross-reactivity of PSA-ACT for free PSA is less than 0.2% [Pettersson et al., 1995]. The lower limits of detection are 0.1 ng/mL for both total PSA and free PSA. For detection, the 1235 automatic immunoassay system from Perkin-Elmer Life Sciences (Waltham, Mass.) was used.
(vii) Statistical analysis: Two-way ANOVA test using GraphPad Prism (GraphPad Software, La Jolla, Calif.) was used for therapeutic efficacy in affecting tumor growth, and One-way ANOVA for PSA and a Mann-Whitney test for CD31, Ki67 or TUNEL staining quantification. Differences with p values<0.05 were considered statistically significant.
To verify that AR activity was inhibited by the treatments, the levels of total PSA (tPSA) in serum of mice bearing LNCaP-AR tumors were measured. Serum tPSA values were determined in separate cohorts of mice at one, three, or seven days post-WST11 VTP (four, six or ten days post-degarelix).

[2] = system: LNCaP-AR tumors; assay: Histology and immunohistochemistry of treated tumors (TUNEL, AR, Ki67); type: in vivo, mice; conditions: for TUNEL staining (cell death): tumors on days three and seven post-VTP (FIG. 5B)
Procedure: (§1) (v) Histology and immunohistochemistry: All tumor specimens were fixed in 10% buffered formalin (Fisher Scientific, Pittsburgh, Pa.), processed routinely, embedded in paraffin, sectioned at 5-micron thickness, and stained with hematoxylin-eosin (H&E). Immunohistochemistry (IHC) of tumors was performed on 5 micron formalin-fixed paraffin embedded (FFPE) section following heat induced epitope retrieval (HIER) in a buffer at pH 9.0. AR staining with anti-AR antibody (at 0.66 μg/ml, Abcam, Cambridge, Mass.) and TUNEL staining for cell death with terminal deoxynucleotidyl transferase dUTP nick-end labeling (Roche Diagnostics, Indianapolis, Ind.) was performed using Discovery XT processor (Ventana Medical Systems, Inc., Tucson, Ariz.) at the Molecular Cytology core facility. IHC staining for CD31 and Ki67 markers was performed on FFPE sections at the Laboratory of Comparative Pathology on a Leica Bond RX automated stainer (Leica Biosystems, Buffalo Grove, Ill.). […] For quantification of CD31, Ki67 and TUNEL staining, whole slide digital images were generated on a scanner (Pannoramic 250 Flash III, 3DHistech, 20×/0.8NA objective, Budapest, Hungary) at a resolution of 0.2431 μm per pixel. Staining quantification was performed with QuPath 0.1.2 software (Centre for Cancer Research & Cell Biology, Queen's University Belfast, UK). […] For CD31 and TUNEL, the positive area, defined as the ratio of DAB stained pixels to total ROI area, was measured using the positive pixel count algorithm. For Ki67, the ratio (percentage) of cells with positive nuclear staining to total cell number was measured with the positive cell detection algorithm. […]
(§2) (vii) Statistical analysis: Two-way ANOVA test using GraphPad Prism (GraphPad Software, La Jolla, Calif.) was used for therapeutic efficacy in affecting tumor growth, and One-way ANOVA for PSA and a Mann-Whitney test for CD31, Ki67 or TUNEL staining quantification. […]

[3] = system: CD31; assay: CD31 IHC staining of tumors (vessel quantification); type: in vivo, mice
Procedure: as §1, with “9.0.” for “9.0. AR staining with anti-AR antibody (at 0.66 μg/ml, Abcam, Cambridge, Mass.) and TUNEL staining for cell death with terminal deoxynucleotidyl transferase dUTP nick-end labeling (Roche Diagnostics, Indianapolis, Ind.) was performed using Discovery XT processor (Ventana Medical Systems, Inc., Tucson, Ariz.) at the Molecular Cytology core facility. IHC staining for CD31 and Ki67 markers was performed on FFPE sections at the Laboratory of Comparative Pathology on a Leica Bond RX automated stainer (Leica Biosystems, Buffalo Grove, Ill.).”
as §2

[4] = system: LNCaP-AR xenograft tumors; assay: GSEA transcriptome analysis of LNCaP-AR xenografts following VTP; type: in vivo, SCID mice
Procedure: (vi) GSEA for transcriptome analysis of LNCaP-AR xenografts following VTP treatment: LNCaP/AR xenografts were established in intact SCID mice by injecting 2 million cells as described previously [Chen et al., 2004] and, once established, were treated with VTP at 9 mg/kg WST11 followed by 753 nm illumination at 100 mW/cm^2 laser fluence. Tumors were collected at 3, 6, or 24 hours, 1 week and 8.5 weeks post VTP and RNA was isolated following the standard protocol using TRIzol (Fisher Scientific). Expression profiling was performed using Illumina HT-12 Expression BeadChip array and the data was analyzed using Partek Genomics Suite (Partek Inc., St. Louis, Mo.). The microarray data then underwent secondary analysis by GSEA [Subramanian et al., 2005] using gene sets from the Hallmark and C2, Canonical Pathways collections (Molecular Signature Databases v6.0 (MSigDB); Broad Institute at http site //software.broadinstitute.org/gsea/msigdb.GSEA| MSigDB. Accessed 19 Jun. 2017. Microarray data has been deposited in the National Center for Biotechnology Information Gene Expression Omnibus (GEO) (GSE109681). To identify potential druggable pathways active in PCa that could be exploited for combination therapy with VTP, we analyzed the transcriptome of LNCaP-AR xenograft tumors following acute response to VTP exposure. […]

[5] = system: low-risk, localized PCa; conditions: cited from earlier work

| Compound | fold changes of serum tPSA [1] | Ki67 signal (tumor proliferation) ([2]; day 7 post-VTP, p<0.05 vs controls (FIG. 5C)) | TUNEL staining (cell death) [2] | number of vessels in tumors by CD31 image analysis ([3]; FIG. 6A, versus control group) | decrease in CD31 staining area compared to controls ([3]; degarelix-treated n=11 vs control n=12, p<0.05 (FIG. 6B)) [%] | gene sets related to hypoxia, HIF1A, and VEGFR pathways (GSEA) ([4]; three to six hours post-VTP treatment) | AR signaling gene sets (GSEA) ([4]; three to six hours post-VTP, vs control mice) | patients negative for cancer in follow up biopsies ([5]; 6 months after prostate hemiablation, low-risk localized PCa) [%] | HR of disease progression versus active surveillance ([5]; at 24 months, 95% CI 0.24-0.46, p<0.0001) | disease progression ([5]; at 24 months, active surveillance 58%) [%] | patients free of clinically significant cancer in the treated lobes ([5]; median follow-up of 68 months) [%] | treated patients who avoided a need for subsequent radical therapy ([5]; median follow-up of 68 months) [%] |
| --- | --- | --- | --- | --- | --- | --- | --- | --- | --- | --- | --- | --- |
| CC(=O)N[C@H](Cc1ccc2ccccc2c1)C(=O)N[C@H](Cc1ccc(Cl)cc1)C(=O)N[C@H](Cc1cccnc1)C(=O)N[C@@H](CO)C(=O)N[C@@H](Cc1ccc(NC(=O)[C@@H]2CC(=O)NC(=O)N2)cc1)C(=O)N[C@H](Cc1ccc(NC(N)=O)cc1)C(=O)N[C@@H](CC(C)C)C(=O)N[C@@H](CCCCNC(C)C)C(=O)N1CCC[C@H]1C(=O)N[C@H](C)C(N)=O [degarelix] (Ac-[d2Nal][dPhe(4-Cl)][d3Pal]S[Phe(4-NH2)](Dihydroorotyl(S))[dPhe(4-NHCONH2)]L[Lys(iPr)]P[dA]-NH2) | declined | reduced Ki67 signal compared to controls | little TUNEL staining | appear to have fewer vessels | 38 | – | – | – | – | – | – | – |
| CCC1c2cc3[n-]c(c(CC(=O)OC)c4nc(cc5[n-]c(cc(n2)C1C)c(C(C)=O)c5C)C(C)C4CCC(=O)[O-])c(C(=O)NCCS(=O)(=O)[O-])c3C.[K+].[K+].[Pd+2] (centres unmarked) [WST11/VTP, Palladium 3^1-oxo-15-methoxycarbonylmethyl-rhodobacteriochlorin 13^1-(2-sulfoethyl) amide dipotassium salt] | declined | – | partial cell death characterized by large foci of TUNEL staining | – | – | statistically significant enrichments | up-regulated | 80.6 | 0.34 | 28 | 82 | 76 |
